Holding throughout (format): functional
The subject of one assay is Ceratobasidium cereale. As to the kind of experiment: Antimicrobial activity against Rhizoctonia cerealis QDAU-20 by serial dilution technique.
A further assay concerns Gaeumannomyces graminis. As to the kind of experiment: Antimicrobial activity against Gaeumannomyces graminis QDAU-21 by serial dilution technique.
A further assay concerns Fusarium oxysporum. As to the kind of experiment: Antimicrobial activity against Fusarium oxysporum QDAU-8 by serial dilution technique.
In assay [1] the test system is Colletotrichum gloeosporioides. As to the kind of experiment: Antimicrobial activity against Colletotrichum gloeosporioides QDAU-2 by serial dilution technique.
Another assay concerns Micrococcus luteus. Nature of the assay: Antimicrobial activity against Micrococcus luteus QDIO-3 by serial dilution technique.
In the next assay the test system is Edwardsiella tarda. As to the kind of experiment: Antimicrobial activity against Edwardsiella tarda QDIO-9 by serial dilution technique.
In a further assay the test system is Vibrio parahaemolyticus. As to the kind of experiment: Antimicrobial activity against Vibrio parahaemolyticus QDIO-8 by serial dilution technique.
A further assay concerns Aeromonas hydrophila. As to the kind of experiment: Antimicrobial activity against Aeromonas hydrophila QDIO-1 by serial dilution technique.
The test system of another assay is Vibrio harveyi. As to the kind of experiment: Antimicrobial activity against Vibrio harveyi QDIO-7 by serial dilution technique.
The test system of the next assay is Pseudomonas aeruginosa. Nature of the assay: Antimicrobial activity against Pseudomonas aeruginosa QDIO-4 by serial dilution technique.
A further assay concerns Escherichia coli. As to the kind of experiment: Antimicrobial activity against Escherichia coli EMBLC-1 by serial dilution technique.

We go through 10 compounds from ChEMBL document CHEMBL4699464, “Talascortenes A-G, Highly Oxygenated Diterpenoid Acids from the Sea-Anemone-Derived Endozoic Fungus Talaromyces scorteus AS-242” (2020).

Converted amounts (≈) assume the structure as drawn.

As for `C[C@@H]1[C@H](O)[C@@H](C)/C=C/C=C/C=C/C=C/C=C/C=C/C=C/[C@H](O[C@@H]2O[C@H](C)[C@@H](O)[C@H](N)[C@@H]2O)C[C@@H]2O[C@](O)(C[C@@H](O)C[C@@H](O)[C@H](O)CC[C@@H](O)C[C@@H](O)CC(=O)O[C@H]1C)C[C@H](O)[C@H]2C(=O)O` [AMPHOTERICIN B], the MIC against Ceratobasidium cereale came to 1 µg/mL (≈ 1.08 µM); in the assay with Gaeumannomyces graminis it was 1 µg/mL (≈ 1.08 µM); against Fusarium oxysporum, 0.5 µg/mL (≈ 0.541 µM); in [1] it was 2 µg/mL (≈ 2.16 µM).

With `C=C[C@]1(C)CCC2=C(CC[C@]3(O)[C@@](C)(C(=O)O)CCC[C@]23C)[C@H]1O`, the MIC against Ceratobasidium cereale is more than 32 µg/mL; in the assay with Micrococcus luteus it was more than 32 µg/mL; in the assay on Edwardsiella tarda, more than 32 µg/mL; against Vibrio parahaemolyticus, more than 32 µg/mL; against Gaeumannomyces graminis it was more than 32 µg/mL; in the assay on Aeromonas hydrophila it was 16 µg/mL (≈ 47.8 µM). In addition, the MIC in the assay on Vibrio harveyi was 8 µg/mL (≈ 23.9 µM); in the assay with Pseudomonas aeruginosa it was more than 32 µg/mL; in the assay with Fusarium oxysporum, more than 32 µg/mL; in assay [1], more than 32 µg/mL; against Escherichia coli it was 16 µg/mL (≈ 47.8 µM).

In the case of `C=C[C@H]1[C@@H]2CC[C@@]3(O)[C@@](C)(C(=O)O)[C@H](O)CC[C@]3(C)[C@H]2CC[C@@]1(O)CCl`, the MIC in the assay on Ceratobasidium cereale is more than 32 µg/mL; against Micrococcus luteus it was 4 µg/mL (≈ 10.3 µM); in the assay with Edwardsiella tarda it was more than 32 µg/mL; in the assay with Vibrio parahaemolyticus it was 32 µg/mL (≈ 82.7 µM); in the assay on Gaeumannomyces graminis, more than 32 µg/mL; in the assay with Aeromonas hydrophila, more than 32 µg/mL. Moreover, the MIC (in the assay with Vibrio harveyi; in the assay on Pseudomonas aeruginosa; in the assay with Fusarium oxysporum; in assay [1]; in the assay on Escherichia coli) was more than 32 µg/mL throughout.

With `C=C[C@]1(C)CCC2=C(CC[C@@]3(O)[C@@](C)(C(=O)O)CCC[C@]23C)[C@H]1OC`, the MIC is more than 32 µg/mL against Ceratobasidium cereale; 8 µg/mL (≈ 23 µM) against Micrococcus luteus; more than 32 µg/mL with Edwardsiella tarda; more than 32 µg/mL with Vibrio parahaemolyticus; more than 32 µg/mL with Gaeumannomyces graminis; more than 32 µg/mL in the assay with Aeromonas hydrophila. For the same compound, the MIC in the assay on Vibrio harveyi was more than 32 µg/mL; in the assay with Pseudomonas aeruginosa, more than 32 µg/mL; in the assay on Fusarium oxysporum, more than 32 µg/mL; in assay [1], 2 µg/mL (≈ 5.74 µM); in the assay on Escherichia coli it was 1 µg/mL (≈ 2.87 µM).

On to `O=C(N[C@H](CO)[C@H](O)c1ccc([N+](=O)[O-])cc1)C(Cl)Cl` [CHLORAMPHENICOL], for which the MIC with Micrococcus luteus amounted to 1 µg/mL (≈ 3.09 µM); in the assay with Edwardsiella tarda it was 0.5 µg/mL (≈ 1.55 µM); against Vibrio parahaemolyticus, 0.5 µg/mL (≈ 1.55 µM); against Aeromonas hydrophila, 4 µg/mL (≈ 12.4 µM); against Vibrio harveyi it was 2 µg/mL (≈ 6.19 µM); with Pseudomonas aeruginosa, 2 µg/mL (≈ 6.19 µM). Further, the MIC against Escherichia coli stood at 1 µg/mL (≈ 3.09 µM).

Regarding `C=C1CC[C@]2(O)[C@](C)(CCC[C@]2(C)C(=O)O)[C@]1(O)CC/C(C)=C/CO`, the MIC with Ceratobasidium cereale is more than 32 µg/mL; in the assay on Micrococcus luteus, more than 32 µg/mL; against Edwardsiella tarda, more than 32 µg/mL; against Vibrio parahaemolyticus, 8 µg/mL (≈ 22.7 µM); with Gaeumannomyces graminis, more than 32 µg/mL; against Aeromonas hydrophila, more than 32 µg/mL. Also, the MIC (in the assay with Vibrio harveyi; with Pseudomonas aeruginosa; in the assay with Fusarium oxysporum; in assay [1]; against Escherichia coli) was more than 32 µg/mL throughout.

As for `C=C[C@]1(C)CCC2=C(CC[C@@]3(O)[C@@](C)(C(=O)O)[C@H](O)CC[C@]23C)[C@@H]1OC`, the MIC against Ceratobasidium cereale is more than 32 µg/mL; with Micrococcus luteus, more than 32 µg/mL; in the assay with Edwardsiella tarda, more than 32 µg/mL; against Vibrio parahaemolyticus it was 8 µg/mL (≈ 21.9 µM); in the assay on Gaeumannomyces graminis, more than 32 µg/mL; against Aeromonas hydrophila, more than 32 µg/mL. Besides, the MIC in the assay on Vibrio harveyi is more than 32 µg/mL; in the assay with Pseudomonas aeruginosa, 32 µg/mL (≈ 87.8 µM); against Fusarium oxysporum, more than 32 µg/mL; in [1], more than 32 µg/mL; with Escherichia coli it was more than 32 µg/mL.

For the compound `C[C@]1(O)C[C@]23CC[C@H]1C[C@@H]2[C@@]1(C)CCC[C@](C)(C(=O)O)[C@]1(O)CC3`, the MIC was 8 µg/mL (≈ 23.8 µM) with Ceratobasidium cereale; 2 µg/mL (≈ 5.94 µM) against Micrococcus luteus; 16 µg/mL (≈ 47.6 µM) with Edwardsiella tarda; more than 32 µg/mL against Vibrio parahaemolyticus; 4 µg/mL (≈ 11.9 µM) against Gaeumannomyces graminis; more than 32 µg/mL in the assay with Aeromonas hydrophila. For the same compound, the MIC in the assay on Vibrio harveyi is more than 32 µg/mL; against Pseudomonas aeruginosa it was 16 µg/mL (≈ 47.6 µM); in the assay on Fusarium oxysporum it was 16 µg/mL (≈ 47.6 µM); in assay [1], more than 32 µg/mL; with Escherichia coli, 32 µg/mL (≈ 95.1 µM).

Turning to `C=C[C@]1(C)CCC2=C(CC[C@@]3(O)[C@@](C)(C(=O)O)[C@H](O)CC[C@]23C)[C@H]1O`, the MIC against Ceratobasidium cereale, with Micrococcus luteus, against Edwardsiella tarda, against Vibrio parahaemolyticus, with Gaeumannomyces graminis and against Aeromonas hydrophila was more than 32 µg/mL in each case. The MIC against Vibrio harveyi was more than 32 µg/mL; in the assay with Pseudomonas aeruginosa it was more than 32 µg/mL; against Fusarium oxysporum it was more than 32 µg/mL; in assay [1] it was more than 32 µg/mL; with Escherichia coli it was 8 µg/mL (≈ 22.8 µM).

As to `C=C[C@]1(C)CC[C@@]2(O)[C@](O)(CC[C@]3(O)[C@]2(C)CCC[C@]3(C)C(=O)O)C1`, the MIC in the assay on Ceratobasidium cereale, with Micrococcus luteus, against Edwardsiella tarda, against Vibrio parahaemolyticus, in the assay on Gaeumannomyces graminis and in the assay with Aeromonas hydrophila was more than 32 µg/mL in each case. The MIC was more than 32 µg/mL against Vibrio harveyi; more than 32 µg/mL with Pseudomonas aeruginosa; more than 32 µg/mL against Fusarium oxysporum; more than 32 µg/mL in assay [1]; 8 µg/mL (≈ 22.7 µM) with Escherichia coli.
